Experimental data from US11312712B2, “Azabenzimidazoles and their use as AMPA receptor modulators” (Janssen Pharmaceutica NV, priority 2015, dated 2022).

Molecular target: GluA1o-γ8 (GRIA1o-CACNG8 fusion construct) (Homo sapiens (Human), UniProt P42261+Q8WXS5)
Assay: Calcium flux assay (FLIPR), inhibition of TARP γ8 dependent AMPA receptor activity
Format: cell-based
Conditions: GluA1o-γ8 (GRIA1o-CACNG8 fusion) in HEK293 cells, calcium flux after 15 μM glutamate
In short: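 HEK293 cells stably expressing a 1:1 GRIA1o–CACNG8 fusion were loaded with Calcium-5/6 dye plus compound in pH 7.4 HEPES-buffered saline. FLIPR calcium flux after 15 μM glutamate was normalized to untreated and 10 μM CP465022 controls, and a four-parameter logistic fit gave pIC50.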

Sequence of GluA1o-γ8 (GRIA1o-CACNG8 fusion construct) (P42261 other isoform, or with tags, fused parts or gaps): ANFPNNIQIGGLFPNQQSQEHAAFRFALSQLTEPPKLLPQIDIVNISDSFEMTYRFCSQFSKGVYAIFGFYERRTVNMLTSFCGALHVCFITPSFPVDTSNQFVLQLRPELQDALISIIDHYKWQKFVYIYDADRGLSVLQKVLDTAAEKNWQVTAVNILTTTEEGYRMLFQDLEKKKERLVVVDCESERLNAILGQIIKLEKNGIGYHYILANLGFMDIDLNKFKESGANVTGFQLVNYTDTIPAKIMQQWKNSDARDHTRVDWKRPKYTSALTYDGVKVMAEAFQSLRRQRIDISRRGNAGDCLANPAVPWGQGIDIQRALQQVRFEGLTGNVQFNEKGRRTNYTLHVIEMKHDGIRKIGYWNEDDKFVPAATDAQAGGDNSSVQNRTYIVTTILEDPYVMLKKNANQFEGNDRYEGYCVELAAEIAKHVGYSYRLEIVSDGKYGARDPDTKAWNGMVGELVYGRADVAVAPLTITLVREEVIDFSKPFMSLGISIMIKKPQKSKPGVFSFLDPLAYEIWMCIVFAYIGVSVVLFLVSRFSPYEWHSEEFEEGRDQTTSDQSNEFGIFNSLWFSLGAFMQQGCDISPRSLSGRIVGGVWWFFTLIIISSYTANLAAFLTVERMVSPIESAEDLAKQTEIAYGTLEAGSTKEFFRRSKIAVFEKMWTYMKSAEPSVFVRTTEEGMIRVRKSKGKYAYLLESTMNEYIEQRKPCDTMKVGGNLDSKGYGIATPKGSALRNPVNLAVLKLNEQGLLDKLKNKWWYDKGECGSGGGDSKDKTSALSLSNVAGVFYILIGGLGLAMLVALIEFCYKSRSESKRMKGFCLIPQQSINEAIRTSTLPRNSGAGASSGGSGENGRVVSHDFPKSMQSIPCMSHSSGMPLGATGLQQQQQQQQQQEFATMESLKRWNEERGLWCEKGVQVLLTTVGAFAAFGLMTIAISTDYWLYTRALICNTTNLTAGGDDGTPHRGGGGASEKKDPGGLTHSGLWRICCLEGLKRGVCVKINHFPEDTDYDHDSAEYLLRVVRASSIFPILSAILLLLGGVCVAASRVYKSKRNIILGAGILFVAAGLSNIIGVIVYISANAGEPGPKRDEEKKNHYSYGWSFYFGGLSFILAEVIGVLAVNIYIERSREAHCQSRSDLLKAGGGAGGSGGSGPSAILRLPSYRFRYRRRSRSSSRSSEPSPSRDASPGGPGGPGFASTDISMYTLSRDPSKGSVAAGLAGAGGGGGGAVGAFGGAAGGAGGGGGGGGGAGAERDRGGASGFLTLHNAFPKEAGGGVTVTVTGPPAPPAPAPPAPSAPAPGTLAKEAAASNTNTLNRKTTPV

| IC50 | Structure (SMILES) |
| --- | --- |
| 3.98 nM | Cc1ccc(-c2nc3ccc(C(F)(F)F)nc3n2-c2ccc3[nH]ncc3c2)cc1 [Example 123, 3-(1H-Indazol-5-yl)-2-(p-tolyl)-5-(trifluoromethyl)imidazo[4,5-b]pyridine] |
| 12.6 nM | FC(F)(F)c1ccc2nc(-c3ccncc3)n(-c3ccc4[nH]ncc4c3)c2n1 [Example 124, 3-(1H-Indazol-5-yl)-2-(4-pyridyl)-5-(trifluoromethyl)imidazo[4,5-b]pyridine] |
| 0.794 nM | FC(F)(F)c1nc2ccc(C3CC3)nc2n1-c1ccc2[nH]ncc2c1 [Example 125, 5-Cyclopropyl-3-(1H-indazol-5-yl)-2-(trifluoromethyl)imidazo[4,5-b]pyridine] |
| 794 nM | CN(C)C(=O)c1nc2ccc(C(F)(F)F)nc2n1-c1ccc2[nH]ncc2c1 [Example 126, 3-(1H-Indazol-5-yl)-N,N-dimethyl-5-(trifluoromethyl)imidazo[4,5-b]pyridine-2-carboxamide] |
| 794 nM | CNC(=O)c1nc2ccc(C(F)(F)F)nc2n1-c1ccc2[nH]ncc2c1 [Example 127, 3-(1H-Indazol-5-yl)-N-methyl-5-(trifluoromethyl)imidazo[4,5-b]pyridine-2-carboxamide] |
| 501 nM | O=C(NC1CC1)c1nc2ccc(C(F)(F)F)nc2n1-c1ccc2[nH]ncc2c1 [Example 128, N-Cyclopropyl-3-(1H-indazol-5-yl)-5-(trifluoromethyl)imidazo[4,5-b]pyridine-2-carboxamide] |
| 15.8 nM | COc1nc2ccc(C(F)(F)F)nc2n1-c1ccc2[nH]ncc2c1 [Example 129, 3-(1H-Indazol-5-yl)-2-methoxy-5-(trifluoromethyl)imidazo[4,5-b]pyridine] |
| 100 nM | CCNc1nc2ccc(C(F)(F)F)nc2n1-c1ccc2[nH]ncc2c1 [Example 130, N-Ethyl-3-(1H-indazol-5-yl)-5-(trifluoromethyl)imidazo[4,5-b]pyridin-2-amine] |
| 158 nM | FC(F)(F)c1ccc2nc(NC3CCCCC3)n(-c3ccc4[nH]ncc4c3)c2n1 [Example 131, N-Cyclohexyl-3-(1H-indazol-5-yl)-5-(trifluoromethyl)imidazo[4,5-b]pyridin-2-amine] |
| 0.0631 nM | O=c1[nH]c2ccc(-n3c(C4CCC4)nc4ccc(C(F)(F)F)nc43)cc2s1 [Example 132, 6-[2-Cyclobutyl-5-(trifluoromethyl)imidazo[4,5-b]pyridin-3-yl]-3H-1,3-benzothiazol-2-one] |
| 1 nM | Cc1cc(N2CCOCC2)c2nc(C3CCC3)n(-c3ccc4[nH]c(=O)sc4c3)c2n1 [Example 133, 6-(2-Cyclobutyl-5-methyl-7-morpholino-imidazo[4,5-b]pyridin-3-yl)-3H-1,3-benzothiazol-2-one] |
| 0.0794 nM | O=c1[nH]c2ccc(-n3c(C(F)(F)F)nc4ccc(C(F)(F)F)nc43)cc2s1 [Example 134, 6-[2,5-Bis(trifluoromethyl)imidazo[4,5-b]pyridin-3-yl]-3H-1,3-benzothiazol-2-one] |
| 79.4 nM | Cc1ccnc2c1nc(C1CC1)n2-c1ccc2[nH]c(=O)sc2c1 [Example 135, 6-(2-Cyclopropyl-7-methyl-imidazo[4,5-b]pyridin-3-yl)-3H-1,3-benzothiazol-2-one] |
| 5.01 nM | Cc1cc(N2CCOCC2)c2nc(C3CC3)n(-c3ccc4[nH]c(=O)sc4c3)c2n1 [Example 136, 6-(2-Cyclopropyl-5-methyl-7-morpholino-imidazo[4,5-b]pyridin-3-yl)-3H-1,3-benzothiazol-2-one] |
| 0.501 nM | Cc1cc(Cl)nc2c1nc(C1CCC1)n2-c1ccc2[nH]ncc2c1 [Example 137, 5-Chloro-2-cyclobutyl-3-(1H-indazol-5-yl)-7-methyl-imidazo[4,5-b]pyridine] |
| 0.02 nM | FC(F)(F)c1ccc2nc(C3CCC3)n(-c3cc(Br)c4[nH]ncc4c3)c2n1 [Example 138, 3-(7-Bromo-1H-indazol-5-yl)-2-cyclobutyl-5-(trifluoromethyl)imidazo[4,5-b]pyridine] |

| IC50 | Structure (SMILES) |
| --- | --- |
| 39.8 nM | Cc1ccc2nc(C(F)(F)F)n(-c3ccc4c(c3)CC(=O)N4)c2n1 [Example 139, 5-[5-Methyl-2-(trifluoromethyl)imidazo[4,5-b]pyridin-3-yl]indolin-2-one] |
| 2.51 nM | O=C1Cc2cc(-n3c(C4CC4)nc4ccc(C(F)F)nc43)ccc2N1 [Example 140, 5-[2-Cyclopropyl-5-(difluoromethyl)imidazo[4,5-b]pyridin-3-yl]indolin-2-one] |
| 1.26 nM | CC(C)c1nc2ccc(C(F)F)nc2n1-c1ccc2c(c1)CC(=O)N2 [Example 141, 5-[5-(Difluoromethyl)-2-isopropyl-imidazo[4,5-b]pyridin-3-yl]indolin-2-one] |
| 1.58 nM | Cc1ccc2nc(C(F)(F)F)n(-c3ccc4[nH]c(=O)sc4c3)c2n1 [Example 142, 6-[5-Methyl-2-(trifluoromethyl)imidazo[4,5-b]pyridin-3-yl]-3H-1,3-benzothiazol-2-one] |
| 1 nM | Cc1ccc2nc(C3CC3)n(-c3ccc4[nH]c(=O)sc4c3)c2n1 [Example 143, 6-(2-Cyclopropyl-5-methyl-imidazo[4,5-b]pyridin-3-yl)-3H-1,3-benzothiazol-2-one] |
| 1.58 nM | Cc1ccc2nc(C(C)C)n(-c3ccc4[nH]c(=O)sc4c3)c2n1 [Example 144, 6-(2-Isopropyl-5-methyl-imidazo[4,5-b]pyridin-3-yl)-3H-1,3-benzothiazol-2-one] |
| 0.251 nM | Cc1ccc2nc(C3CCC3)n(-c3ccc4[nH]c(=O)sc4c3)c2n1 [Example 145, 6-(2-Cyclobutyl-5-methyl-imidazo[4,5-b]pyridin-3-yl)-3H-1,3-benzothiazol-2-one] |
| 39.8 nM | Cc1ccc2nc(C(C)(F)F)n(-c3ccc4c(c3)CC(=O)N4)c2n1 [Example 146, 5-[2-(1,1-Difluoroethyl)-5-methyl-imidazo[4,5-b]pyridin-3-yl]indolin-2-one] |
| 10 nM | Cc1ccc2nc(C3CC3)n(-c3ccc4[nH]ncc4c3)c2n1 [Example 147, 2-Cyclopropyl-3-(1H-indazol-5-yl)-5-methyl-imidazo[4,5-b]pyridine] |
| 7.94 nM | Cc1ccc2nc(C(C)C)n(-c3ccc4[nH]ncc4c3)c2n1 [Example 148, 3-(1H-Indazol-5-yl)-2-isopropyl-5-methyl-imidazo[4,5-b]pyridine] |
| 0.794 nM | Cc1ccc2nc(C3CCC3)n(-c3ccc4[nH]ncc4c3)c2n1 [Example 149, 2-Cyclobutyl-3-(1H-indazol-5-yl)-5-methyl-imidazo[4,5-b]pyridine] |
| 1.58 nM | Cc1ccc2nc(C(C)(F)F)n(-c3ccc4[nH]c(=O)sc4c3)c2n1 [Example 150, 6-[2-(1,1-Difluoroethyl)-5-methyl-imidazo[4,5-b]pyridin-3-yl]-3H-1,3-benzothiazol-2-one] |
| 12.6 nM | Cc1ccc2nc(C(F)(F)F)n(-c3ccc4[nH]ncc4c3)c2n1 [Example 151, 3-(1H-Indazol-5-yl)-5-methyl-2-(trifluoromethyl)imidazo[4,5-b]pyridine] |
| 39.8 nM | Cc1ccc2nc(C(C)(F)F)n(-c3ccc4[nH]ncc4c3)c2n1 [Example 152, 2-(1,1-Difluoroethyl)-3-(1H-indazol-5-yl)-5-methyl-imidazo[4,5-b]pyridine] |
| 2.51 nM | O=C1Cc2cc(-n3c(C(F)(F)F)nc4ccc(C(F)F)nc43)ccc2N1 [Example 153, 5-[5-(Difluoromethyl)-2-(trifluoromethyl)imidazo[4,5-b]pyridin-3-yl]indolin-2-one] |
